Reference: patent US20250195521A1 (Revolution Medicines, Inc., priority 2020, published 2025)
Read-outs that look alike come from different tables or passages of the source.

What was measured:
[1] = system: NCI-H358 cells (K-Ras G12C); assay: CellTiter-Glo cell viability, NCI-H358; format: cell-based, human; settings: K-Ras G12C, 5-day treatment, read-out: H358 Cell Viability IC50
Experimental: Note—The following protocol describes a procedure for monitoring cell viability of K-Ras mutant cancer cell lines in response to a compound of the invention. Other RAS isoforms may be employed, though the number of cells to be seeded will vary based on cell line used.
Test compounds (132.5 nl) were directly dispensed into the assay plates containing cells. […] On day 5, assay plates and their contents were equilibrated to room temperature for approximately 30 minutes. […] Luminescence was measured using the PerkinElmer Enspire. Data were normalized by the following: (Sample signal/Avg. DMSO)*100. The data were fit using a four-parameter logistic fit.

KRAS G12V = KRAS G12V (Homo sapiens (Human), UniProt P01116+P62937, G12V); assay: Ras-Raf disruption/FRET/MOA assay (BRAF RBD, Cyclophilin A); format: biochemical; settings: read-out: KRAS G12V FRET IC50
Summary of the method: (§1)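 His6-K-Ras-GMPPNP (12.5 nM), GST-BRAF RBD (50 nM) and tagless Cyclophilin A (25 μM) were combined in 25 mM HEPES pH 7.3 with 100 mM NaCl, 5 mM MgCl2, 0.1% BSA and 0.002% Tween20, with compound as a 10-point 3-fold series from 30 μM final, then incubated 3 h at 25° C.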

KRAS G13D = KRAS G13D (Homo sapiens (Human), UniProt P01116+P62937, G13D); assay: as above; format: biochemical; settings: read-out: KRAS G13D FRET data IC50
Summary of the method: as §1

KRAS G12D = KRAS G12D (Homo sapiens (Human), UniProt P01116+P62937, G12D); assay: as above; format: biochemical; settings: read-out: KRAS G12D FRET IC50
Summary of the method: as §1

KRAS G12S = KRAS G12S (Homo sapiens (Human), UniProt P01116+P62937, G12S); assay: as above; format: biochemical; settings: read-out: KRAS G12S FRET IC50
Summary of the method: as §1

KRAS G13C = KRAS G13C (Homo sapiens (Human), UniProt P01116+P62937, G13C); assay: as above; format: biochemical; settings: read-out: KRAS G13C FRET IC50
Summary of the method: as §1

NRAS G12C = NRAS G12C (Homo sapiens (Human), UniProt P01111+P62937, G12C); assay: as above; format: biochemical; settings: read-out: NRAS G12C FRET data IC50
Sequence of NRAS G12C (P01111 whole entry G12C): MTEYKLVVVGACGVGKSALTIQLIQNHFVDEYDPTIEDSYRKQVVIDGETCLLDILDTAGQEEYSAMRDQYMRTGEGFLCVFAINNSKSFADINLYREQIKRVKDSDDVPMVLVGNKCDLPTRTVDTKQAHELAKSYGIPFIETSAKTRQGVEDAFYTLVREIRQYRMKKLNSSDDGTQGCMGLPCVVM
Sequence of NRAS G12C (P62937 whole entry): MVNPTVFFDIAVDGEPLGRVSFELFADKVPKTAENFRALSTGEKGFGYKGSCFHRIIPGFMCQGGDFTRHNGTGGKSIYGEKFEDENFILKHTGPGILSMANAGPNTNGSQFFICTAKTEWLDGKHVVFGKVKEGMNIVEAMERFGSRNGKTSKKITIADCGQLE
Summary of the method: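 First, 25 μM Cyclophilin A, 12.5 nM His6-Ras-GMPPNP and 50 nM GST-BRAF RBD are mixed with diluted compound at pH 7.3. Next, 3 h at 25° C. Then 10 nM anti-His Eu-W1024 plus 50 nM anti-GST allophycocyanin for 1.5 h before TR-FRET reading.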

KRAS G12C = KRAS G12C (Homo sapiens (Human), UniProt P01116+P62937, G12C); assay: as above; format: biochemical; settings: read-out: KRAS G12C FRET IC50
Summary of the method: as §1

KRAS WT = KRAS WT (Homo sapiens (Human), UniProt P01116+P62937); assay: as above; format: biochemical; settings: read-out: KRAS WT FRET data IC50
Summary of the method: as §1

NCI-H358 (K-Ras G12C) = assay: CellTiter-Glo cell viability assay, NCI-H358; format: cell-based, human; settings: 5-day treatment, read-out: H358 Cell Viability assay data (K-Ras G12C, IC50)
Summary of the method: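 Cells seeded, compound added directly to plates; day 5: plates to RT ~30 min, CellTiter-Glo luminescence; (sample/avg DMSO)*100; 4-parameter fit.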

[2] = system: K-Ras G12C (NCI-H358 cells); assay: Potency assay: pERK in NCI-H358 cells; format: cell-based, human; settings: NCI-H358 cells, 4 hours, read-out: pERK EC50 (H358 KRAS G12C)
Summary of the method: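 Cells plated the day before were exposed for 4 h at 37° C, 5% CO2 to a 10-point, 3-fold DMSO dilution series (10 mM top stock), in duplicate. Phospho-ERK was read by AlphaLISA SureFire Ultra or by In-Cell Western with DRAQ5 DNA stain, and IC50 came from a 4-parameter sigmoidal fit.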

[3] = system: Capan-1 cells (K-Ras G12V); assay: CellTiter-Glo cell viability, Capan-1; format: cell-based, human; settings: Homo sapiens, CAPAN-1, 120 h, K-Ras G12V, 5-day treatment; read-out: Capan-1 Cell Viability IC50
Summary of the method: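 Cells seeded, compound dispensed straight into wells, 5-day exposure. Plates brought to room temperature ~30 min, CellTiter-Glo luminescence measured. Normalized to DMSO (%), 4-parameter logistic fit.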

| IC50 ([1]; Homo sapiens, NCI-H358, 120 h) | IC50 (KRAS G12V) | IC50 (KRAS G13D) | IC50 (KRAS G12D) | IC50 (KRAS G12S) | IC50 (KRAS G13C) | IC50 (NRAS G12C) | IC50 (KRAS G12C) | IC50 (KRAS WT) | IC50 (NCI-H358 (K-Ras G12C); Homo sapiens, NCI-H358, 120 h) | EC50 ([2]; Homo sapiens) | Compound | IC50 [3] | IC50 (NCI-H358 (K-Ras G12C)) | EC50 [2] | IC50 [1] |
| --- | --- | --- | --- | --- | --- | --- | --- | --- | --- | --- | --- | --- | --- | --- | --- |
| > 10000 nM | 1000 to 10000 nM | 1000 to 10000 nM | > 10000 nM | 1000 to 10000 nM | 1000 to 10000 nM | 1000 to 10000 nM | 1000 to 10000 nM | 1000 to 10000 nM |  |  | CCn1c(-c2cnccc2COC)c2c3cc(ccc31)-c1cc(O)cc(c1)C[C@H](NC(=O)[C@H](C(C)C)N(C)c1cnc(N)[nH]c1=O)C(=O)N1CCC[C@H](N1)C(=O)OCC(C)(C)C2 [Compound A63] |  |  |  |  |
| > 10000 nM | 1000 to 10000 nM | 1000 to 10000 nM | 1000 to 10000 nM | 100 to 1000 nM | 100 to 1000 nM |  | 100 to 1000 nM | 1000 to 10000 nM | 10 to 100 nM | < 5000 nM | CCn1c(-c2ccccc2CCOC)c2c3cc(ccc31)-c1cc(O)cc(c1)C[C@H](NC(=O)[C@H](C(C)C)N(C)C(=O)CNC(=N)N)C(=O)N1CCC[C@H](N1)C(=O)OCC(C)(C)C2 [Compound A69] |  |  |  |  |
| 100 to 1000 nM | 10 to 100 nM | 10 to 100 nM |  | 10 to 100 nM |  | < 10 nM | < 10 nM |  |  |  | CCn1c(-c2cccnc2[C@H](C)OC)c2c3cc(ccc31)-c1cc(O)cc(c1)C[C@H](NC(=O)[C@H](C(C)C)N(C)C(=O)[C@H]1C[C@@H]1O)C(=O)N1CCC[C@H](N1)C(=O)OCC(C)(C)C2 [Compound A323] | 100 to 1000 nM |  |  |  |

Second part, the compound before the results:

| Compound | IC50 ([1]; Homo sapiens, NCI-H358, 120 h) | IC50 (KRAS G12V) | IC50 (KRAS G13D) | IC50 (KRAS G12D) | IC50 (KRAS G12S) | IC50 (KRAS G13C) | IC50 (NRAS G12C) | IC50 (KRAS G12C) | IC50 (KRAS WT) | IC50 (NCI-H358 (K-Ras G12C); Homo sapiens, NCI-H358, 120 h) | EC50 ([2]; Homo sapiens) | IC50 [3] | IC50 (NCI-H358 (K-Ras G12C)) | EC50 [2] | IC50 [1] |
| --- | --- | --- | --- | --- | --- | --- | --- | --- | --- | --- | --- | --- | --- | --- | --- |
| CCn1c(-c2cnccc2COC)c2c3cc(ccc31)-c1cc(O)cc(c1)C[C@H](NC(=O)[C@H](C(C)C)N(C)C(=O)CN/C(N)=N/C#N)C(=O)N1CCC[C@H](N1)C(=O)OCC(C)(C)C2 [Compound A62] | > 10000 nM | 100 to 1000 nM | 100 to 1000 nM | 100 to 1000 nM | 100 to 1000 nM | 100 to 1000 nM | 100 to 1000 nM | 10 to 100 nM | 100 to 1000 nM |  |  |  |  |  |  |
| CCn1c(-c2cnccc2COC)c2c3cc(ccc31)-c1cc(O)cc(c1)C[C@H](NC(=O)[C@H](C(C)C)N(C)C(=O)CCCCN)C(=O)N1CCC[C@H](N1)C(=O)OCC(C)(C)C2 [Compound A66] | 1000 to 10000 nM | 1000 to 10000 nM | 100 to 1000 nM | 100 to 1000 nM | 100 to 1000 nM | 100 to 1000 nM | 100 to 1000 nM | 100 to 1000 nM | 100 to 1000 nM |  |  |  |  |  |  |
| CCn1c(-c2cccnc2[C@H](C)OC)c2c3cc(ccc31)-c1cc(O)cc(c1)C[C@H](NC(=O)[C@H](C(C)C)N(C)C(=O)C1(F)CC1)C(=O)N1CCC[C@H](N1)C(=O)OCC(C)(C)C2 [Compound A165] | 10 to 100 nM |  | 10 to 100 nM | 100 to 1000 nM | 10 to 100 nM | 10 to 100 nM | 10 to 100 nM | 10 to 100 nM | 10 to 100 nM |  |  |  |  |  |  |
| CCn1c(-c2cccnc2[C@H](C)OC)c2c3cc(ccc31)-c1cc(O)cc(c1)C[C@H](NC(=O)[C@H](C(C)C)N(C)C(=O)[C@H]1CCN(C(=O)C(C)(C)NC)C1)C(=O)N1CCC[C@H](N1)C(=O)OCC(C)(C)C2 [Compound A381] | 100 to 1000 nM | 100 to 1000 nM | 10 to 100 nM | 10 to 100 nM | 10 to 100 nM |  | 10 to 100 nM | 10 to 100 nM | 10 to 100 nM |  |  | 1000 to 10000 nM |  |  |  |
| (2S)—N-[(8S,14S)-22-ethyl-4-hydroxy-21-[4-(methoxymethyl)pyridin-3-yl]-18,18-dimethyl-9,15-dioxo-16-oxa-10,22,28-triazapentacyclo [18.5.2.1^2,6.1^10,14.0^23,27]nonacosa-1 (26),2,4,6 (29),20,23 (27),24-heptaen-8-yl]-2-{1-[(3S)-1-{2-[(3R)-3-hydroxypyrrolidin-1-yl]acetyl}pyrrolidin-3-yl]-N-methylformamido}-3-methylbutanamide [Compound A6] |  | 100 to 1000 nM |  | 100 to 1000 nM | 10 to 100 nM | 100 to 1000 nM |  | 10 to 100 nM |  |  |  |  | 100 to 1000 nM | < 5000 nM | 1000 to 10000 nM |
